Here are results for 53 compounds from patent US20040044075A1, “Alpha acyloxyacetamides for kallikrein and urokinase inhibition” (Genzyme Corporation, priority 2002, published 2004).

Chain of Kallikrein (P03952 whole entry): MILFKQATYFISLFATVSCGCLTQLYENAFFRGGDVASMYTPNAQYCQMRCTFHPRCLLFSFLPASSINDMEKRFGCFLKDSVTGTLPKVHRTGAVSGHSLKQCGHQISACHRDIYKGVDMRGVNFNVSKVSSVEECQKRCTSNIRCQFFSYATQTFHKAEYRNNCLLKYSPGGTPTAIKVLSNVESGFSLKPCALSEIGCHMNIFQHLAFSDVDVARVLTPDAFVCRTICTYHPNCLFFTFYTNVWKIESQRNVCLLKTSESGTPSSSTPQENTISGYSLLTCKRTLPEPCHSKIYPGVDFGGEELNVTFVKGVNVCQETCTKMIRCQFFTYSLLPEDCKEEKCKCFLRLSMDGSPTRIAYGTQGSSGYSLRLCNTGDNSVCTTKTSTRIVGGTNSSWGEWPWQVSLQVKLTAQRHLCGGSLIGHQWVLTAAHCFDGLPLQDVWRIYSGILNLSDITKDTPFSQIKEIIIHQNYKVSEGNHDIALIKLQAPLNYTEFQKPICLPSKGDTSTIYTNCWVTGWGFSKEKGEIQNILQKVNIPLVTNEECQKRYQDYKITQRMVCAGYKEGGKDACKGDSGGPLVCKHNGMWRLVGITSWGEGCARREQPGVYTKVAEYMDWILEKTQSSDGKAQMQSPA

The first assay addresses Kallikrein (Homo sapiens, UniProt P03952). Kind of assay: Kallikrein inhibition assay (fluorometric, H-Pro-Phe-Arg-AMC substrate). Format: biochemical. The note with it: 24° C, HEPES pH 7.5, 5% DMSO, fluorescence after ten minutes. On the procedure:
Kallikrein activity was assayed fluorometrically with an aminomethyl coumarin-containing (AMC-containing) substrate according to procedures described in Zimmerman et al., Proc. Natl. Acad. Sci. USA 75:750 (1978), the entire teachings of which are incorporated herein by reference. Specifically, enzyme assays with varying concentrations of the fluorogenic substrate H-Pro-Phe-Arg-AMC were conducted at 24° C in 0.05 M 4-(2-hydroxyethyl)-piperazineethanesulfonic acid (HEPES) buffer, pH 7.5/5% (vol/vol) dimethyl sulfoxide. The final volume was 0.1 ml in each assay. Fluorescence was read after ten minutes at 360 nm (activation wavelength) and 460 nm (emission wavelength).
`COc1cc(CNC(=O)C(OC(=O)Cc2c[nH]c3ccc(Br)cc23)c2ccc(Br)cc2)cc(OC)c1OC` (stereo not shown) [Compound (39)] registered an IC50 of 2.68 µM.
The same measure, in the same setting: to `O=C(CCOc1ccccc1)OC(C(=O)Nc1ccc2ncccc2c1)c1ccc(Br)cc1` (stereo not shown) [Compound (32)] belongs 1.34 µM.
Regarding `COc1ccc(CC(=O)OC(C(=O)NC2CC2)c2ccc(C#N)cc2)cc1` (stereo not shown) [Compound (35)], the IC50 amounted to 0.391 µM.
`COc1ccc(CC(=O)OC(C(=O)Nc2ccc(OC)c(OC)c2)c2ccc(C#N)cc2)cc1` (stereo not shown) [Compound (22)] displayed an IC50 of 0.428 µM.
Same read-out and setting: to `COc1cc(CNC(=O)C(OC(=O)CSc2ncccn2)c2cccc(C#N)c2)cc(OC)c1OC` (stereo not shown) [Compound (20)] belongs 1.48 µM.
`COc1cc(CNC(=O)C(OC(=O)CCOc2ccccc2)c2cccc(C#N)c2)cc(OC)c1OC` (stereo not shown) [Compound (15)] gave an IC50 of 0.577 µM.
`COc1ccc(OC)c(C(=O)CCC(=O)OC(C(=O)Nc2ccc(OC)c(OC)c2)c2cccc(C#N)c2)c1` (stereo not shown) [Compound (16)]: the IC50 was 0.253 µM.
`COc1cc(CNC(=O)C(OC(=O)CCC(=O)c2ccccc2)c2ccc(SC)cc2)cc(OC)c1OC` (stereo not shown) [Compound (13)] yielded an IC50 of 0.874 µM.
Same read-out and setting: the figure for `COc1ccc(OC)c(C(=O)CCC(=O)OC(C(=O)NCc2cc(OC)c(OC)c(OC)c2)c2ccccc2)c1` (stereo not shown) [Compound (37)] is 1.67 µM; for `COc1ccc(OC)c(C(=O)CCC(=O)OC(C(=O)Nc2ccc(OC)c(OC)c2)c2ccc(Br)cc2)c1` (stereo not shown) [Compound (25)] it is 0.275 µM.
Turning to `COc1ccc(CC(=O)OC(C(=O)NCc2cc(OC)c(OC)c(OC)c2)c2ccc(C#N)cc2)cc1` (stereo not shown) [Compound (23)], the IC50 came out at 0.576 µM.
For `COc1ccc(OC)c(C(=O)CCC(=O)OC(C(=O)NC2CC2)c2ccc(Br)cc2)c1` (stereo not shown) [Compound (1)], half-maximal inhibition (IC50) was put at 0.174 µM.
Still for that read-out and setting: the figure for `COc1ccc(OC)c(C(=O)CCC(=O)OC(C(=O)NCc2cc(OC)c(OC)c(OC)c2)c2ccc(C(F)(F)F)cc2)c1` (stereo not shown) [Compound (34)] is 0.731 µM; for `COc1cc(CNC(=O)C(OC(=O)CCCc2ccccc2)c2cccc(C#N)c2)cc(OC)c1OC` (stereo not shown) [Compound (21)] it is 1.18 µM.
The same measure, in the same setting: to `COc1cccc(OCCC(=O)OC(C(=O)NCc2cc(OC)c(OC)c(OC)c2)c2cccc(C#N)c2)c1` (stereo not shown) [Compound (19)] belongs 1.69 µM; to `N#Cc1ccc(C(OC(=O)CCC2CCCCC2)C(=O)NC2CC2)cc1` (stereo not shown) [Compound (3)], 1.06 µM.
Still for that read-out and setting: to `N#Cc1ccc(C(OC(=O)Cc2c[nH]c3ccccc23)C(=O)NC2CC2)cc1` (stereo not shown) [Compound (38)] belongs 3.77 µM.
The compound `COc1ccc(CCNC(=O)C(OC(=O)CSc2ncccn2)c2ccc(C#N)cc2)cc1` (stereo not shown) [Compound (31)] gave an IC50 of 0.543 µM.
Still for that read-out and setting: the figure for `COc1cc(CNC(=O)C(OC(=O)c2csc3cc4c(cc23)OC(C)(C)O4)c2ccc(Br)cc2)cc(OC)c1OC` (stereo not shown) [Compound (36)] is 3.67 µM.
Still for that read-out and setting: to `COc1ccc(CC(=O)OC(C(=O)Nc2ccc(OC)c(OC)c2)c2ccc(Br)cc2)cc1` (stereo not shown) [Compound (28)] belongs 0.68 µM; to `COc1cc(CNC(=O)C(OC(=O)CSc2nc(C)cc(C)n2)c2cccc(C#N)c2)cc(OC)c1OC` (stereo not shown) [Compound (18)], 6.47 µM.
Same read-out and setting: the figure for `COc1cc(CNC(=O)C(OC(=O)CCC(=O)c2ccccc2)c2ccccc2)cc(OC)c1OC` (stereo not shown) [Compound (12)] is 0.737 µM.
`COc1cc(CNC(=O)C(OC(=O)CCC(=O)c2ccccc2)c2ccc(S(C)(=O)=O)cc2)cc(OC)c1OC` (stereo not shown) [Compound (14)] had an IC50 of 1.18 µM.
Still for that read-out and setting: to `COc1ccc(NC(=O)C(OC(=O)CCOc2ccccc2)c2ccc(Br)cc2)cc1` (stereo not shown) [Compound (30)] belongs 0.714 µM.
Still for that read-out and setting: to `COC(=O)c1ccc(C(OC(=O)CCC(=O)c2ccccc2)C(=O)NCc2cc(OC)c(OC)c(OC)c2)cc1` (stereo not shown) [Compound (11)] belongs 0.442 µM; to `COc1cc(CNC(=O)C(OC(=O)CSc2nccc(C)n2)c2cccc(C#N)c2)cc(OC)c1OC` (stereo not shown) [Compound (17)], 0.384 µM; to `NC(=O)c1ccc(NC(=O)C(OC(=O)CCOc2ccccc2)c2ccc(Br)cc2)cc1` (stereo not shown) [Compound (33)], 0.459 µM.
For `N#Cc1ccc(C(OC(=O)Cc2c[nH]c3ccc(Br)cc23)C(=O)NC2CC2)cc1` (stereo not shown) [Compound (2)], the IC50 is 0.167 µM.

The test system of another assay is male rats. Kind of assay: Rat model of inflammatory bowel disease (DNBS-induced distal colitis). The note with it: 500 mg/kg PO × 7, with DNBS; rats. Format: in vivo. Here is the method:
Compounds were tested according to procedures described in C M Hogaboam et al., Eur. J. Pharmacol. 309:261 (1996), the entire teachings of which are incorporated herein by reference. Groups of 3 overnight fasted male rats weighing 150±10 grams were used. Distal colitis was induced by intra-colonic instillation of 0.5 ml/rat of DNBS (2,4-dinitrobenzene sulfonic acid, 60 mg/ml in ethanol 30%) after which air (2 ml) was gently injected through the cannula to ensure that the solution remained in the colon. Test compound was administered orally 24 and 2 hours before DNBS instillation and then daily for 5 days in total of 7 doses. The animals were sacrificed 24 hours after the final dose of test compound administration and each colon was removed and weighed. A 30 percent or more (≧30%) inhibition in net increase of colon to 100 grams body weight ratio, relative to vehicle-control-2 group is considered significant.
In the case of `O=C(O)c1cc(/N=N/c2ccc(S(=O)(=O)Nc3ccccn3)cc2)ccc1O` [Sulfasalazine, reference compound], the “Ave. (average final weight of the colon in grams)” value amounted to 0.865 grams, the “Inhibition (percent inhibition in net increase of colon weight relative to control Group 2)” value was 32% and the “Net Inc. (net increase in weight of the colon relative to control Group 1)” value is 0.378 grams.

The target in a further assay is Urokinase (Homo sapiens, UniProt P00749). The assay is described as follows: Urokinase assay (fluorometric, Cbz-Gly-Gly-Arg-AMC substrate). Format: biochemical. The note with it: 24° C, HEPES pH 7.5, 5% DMSO, fluorescence after ten minutes; read-out: IC50 (μM), urokinase inhibition. On the procedure:
Urokinase activity was assayed fluorometrically with an aminomethyl coumarin-containing (AMC-containing) substrate according to procedures described in Zimmerman et al, Proc. Natl. Acad. Sci. USA 75:750 (1978), the entire teachings of which are incorporated herein by reference. Specifically, enzyme assays with varying concentrations of the fluorogenic substrate Cbz-Gly-Gly-Arg-AMC were conducted at 24° C. in 0.05 M 4-(2-hydroxyethyl)-piperazineethanesulfonic acid (HEPES) buffer, pH 7.5/5% (vol/vol) dimethyl sulfoxide; the final volume was 0.1 ml in each assay.
Fluorescence was read after ten minutes at 360 nm (activation wavelength) and 460 nm (emission wavelength).
Take `N#Cc1ccc(C(OC(=O)Cc2c[nH]c3ccc(Br)cc23)C(=O)NC2CC2)cc1` (stereo not shown) [Compound (5)]: the IC50 was found to be 0.029 µM.
For the compound `COc1ccc(CC(=O)OC(C(=O)Nc2ccc(OC)c(OC)c2)c2ccc(C#N)cc2)cc1` (stereo not shown) [Compound (41)], the IC50 worked out at 2.32 µM.
The same measure, in the same setting: to `COc1cc(CNC(=O)C(OC(=O)CCC2CCCCC2)c2cccc(C#N)c2)cc(OC)c1OC` (stereo not shown) [Compound (44)] belongs 1.78 µM; to `N#Cc1ccc(C(OC(=O)CSc2ncccn2)C(=O)NC2CC2)cc1` (stereo not shown) [Compound (6)], 0.032 µM.
The same measure, in the same setting: the figure for `COc1cc(CNC(=O)C(OC(=O)CCOc2ccccc2)c2cccc(C#N)c2)cc(OC)c1OC` (stereo not shown) [Compound (40)] is 6.09 µM; for `N#Cc1ccc(C(OC(=O)CCC2CCCCC2)C(=O)NC2CC2)cc1` (stereo not shown) [Compound (56)] it is 0.055 µM.
On the same count and under the same terms, the figure for `COc1ccc(NC(=O)C(OC(=O)CSc2ncccn2)c2ccc(Br)cc2)cc1OC` (stereo not shown) [Compound (43)] is 3.39 µM; for `COc1cc(CNC(=O)C(OC(=O)CSc2ncccn2)c2cccc(C#N)c2)cc(OC)c1OC` (stereo not shown) [Compound (9)] it is 0.923 µM; for `COc1ccc(CCNC(=O)C(OC(=O)CSc2ncccn2)c2ccc(C(F)(F)F)cc2)cc1` (stereo not shown) [Compound (48)] it is 5.38 µM.
Take `CCSCCNC(=O)C(OC(=O)Cc1ccc(OC)cc1)c1ccc(C#N)cc1` (stereo not shown) [Compound (52)]: the IC50 stood at 0.628 µM.
The same measure, in the same setting: the figure for `COc1ccc(C(OC(=O)CSc2ncccn2)C(=O)NCc2ccc3c(c2)OCO3)cc1` (stereo not shown) [Compound (49)] is 1.37 µM.
In the case of `COc1ccc(CC(=O)OC(C(=O)NC2CC2)c2ccc(C#N)cc2)cc1` (stereo not shown) [Compound (7)], the IC50 is 0.11 µM.
Same read-out and setting: the figure for `N#Cc1ccc(C(OC(=O)Cc2c[nH]c3ccccc23)C(=O)NC2CC2)cc1` (stereo not shown) [Compound (4)] is 0.086 µM.
Same read-out and setting: to `COc1ccc(CC(=O)OC(C(=O)NCc2ccc3c(c2)OCO3)c2ccc(C#N)cc2)cc1` (stereo not shown) [Compound (10)] belongs 0.783 µM; to `COc1ccc(CCNC(=O)C(OC(=O)CSc2ncccn2)c2ccc(Br)cc2)cc1` (stereo not shown) [Compound (45)], 1.41 µM.
The same measure, in the same setting: the figure for `N#Cc1ccc(C(OC(=O)CCC2CCCC2)C(=O)NC2CC2)cc1` (stereo not shown) [Compound (55)] is 0.151 µM; for `CCOC(=O)CCNC(=O)C(OC(=O)Cc1ccc(OC)cc1)c1ccc(C#N)cc1` (stereo not shown) [Compound (53)] it is 1.06 µM.
Take `COc1ccc(CCNC(=O)C(OC(=O)Cc2ccc(OC)cc2)c2ccc(C#N)cc2)cc1` (stereo not shown) [Compound (51)]: the IC50 stood at 1.22 µM.
As for `COc1ccc(CC(=O)OC(C(=O)NCc2cc(OC)c(OC)c(OC)c2)c2ccc(C#N)cc2)cc1` (stereo not shown) [Compound (42)], the concentration for half-maximal inhibition (IC50) came to 1.97 µM.
Same read-out and setting: to `COc1ccc(CCNC(=O)C(OC(=O)CSc2ncccn2)c2ccc(OC)cc2)cc1` (stereo not shown) [Compound (47)] belongs 2.38 µM; to `COc1ccc(CC(=O)OC(C(=O)NC2CC2)c2ccccc2)cc1` (stereo not shown) [Compound (54)], 0.814 µM; to `COc1ccc(CCNC(=O)C(OC(=O)CSc2ncccn2)c2ccc(C#N)cc2)cc1` (stereo not shown) [Compound (8)], 0.112 µM.
For the compound `O=C(CSc1ncccn1)OC(C(=O)NCc1ccc2c(c1)OCO2)c1ccc(C(F)(F)F)cc1` (stereo not shown) [Compound (50)], the IC50 was 3.1 µM.
The same measure, in the same setting: the figure for `COc1ccc(CCNC(=O)C(OC(=O)CSc2ncccn2)c2ccc3ccccc3c2)cc1` (stereo not shown) [Compound (46)] is 2.93 µM.

The term IC50 denotes the concentration at which inhibition is half-maximal.
